Species: Rattus norvegicus
Assay: DrugMatrix - Regimen: Daily Repeat
Format: toxicity, organism-based, Sprague-Dawley
Set-up: regimen Daily Repeat, gender Male, age 6-8 weeks
Conditions: in vivo, po, route oral GAVAGE, vehicle 100 % WATER; for ABSOLUTE BASOPHIL / ABSOLUTE EOSINOPHIL / ABSOLUTE LYMPHOCYTE / ABSOLUTE MONOCYTE / ABSOLUTE SEGMENTED NEUTROPHIL / BASOPHIL / EOSINOPHIL / ERYTHROCYTE COUNT / HEMATOCRIT / HEMOGLOBIN / LEUKOCYTE COUNT / LYMPHOCYTE / MEAN CORPUSCULAR HEMOGLOBIN / MEAN CORPUSCULAR HEMOGLOBIN CONCENTRATION / MEAN CORPUSCULAR VOLUME / MONOCYTE / NEUTROPHIL / NUCLEATED RED BLOOD CELLS / PLATELET COUNT: tissue Blood; for ALANINE AMINOTRANSFERASE / ALBUMIN / ALKALINE PHOSPHATASE / ASPARTATE AMINOTRANSFERASE / BLOOD UREA NITROGEN / CARBON DIOXIDE / CHLORIDE / CHOLESTEROL / CREATINE PHOSPHOKINASE / CREATININE / GLUCOSE / LACTATE DEHYDROGENASE / LIPASE / PHOSPHORUS / POTASSIUM / SODIUM / TOTAL BILIRUBIN / TOTAL PROTEIN / URIC ACID: tissue Plasma
[1] = 0 mg/kg, 72 h, dose level Control, time 3 day
[2] = 0 mg/kg, 120 h, dose level Control, time 5 day
[3] = 200 mg/kg, 72 h, dose level Low, time 3 day

O=C(O)c1cccnc1 [NIACIN]
ABSOLUTE BASOPHIL [1]: 0 CELLS/uL
ABSOLUTE EOSINOPHIL [1]: 0 CELLS/uL
ABSOLUTE LYMPHOCYTE [1]: 10386.33 CELLS/uL
ABSOLUTE MONOCYTE [1]: 88.5 CELLS/uL
ABSOLUTE SEGMENTED NEUTROPHIL [1]: 1008.5 CELLS/uL
BASOPHIL [1]: 0%
EOSINOPHIL [1]: 0%
ERYTHROCYTE COUNT [1]: 5.16 x10E6/uL
HEMATOCRIT [1]: 32.43%
HEMOGLOBIN [1]: 12.98 G/DL
LEUKOCYTE COUNT [1]: 11.48 x10E3/uL
LYMPHOCYTE [1]: 92.33%
MEAN CORPUSCULAR HEMOGLOBIN [1]: 25.23 pg
MEAN CORPUSCULAR HEMOGLOBIN CONCENTRATION [1]: 40.08 G/DL
MEAN CORPUSCULAR VOLUME [1]: 62.95 fL
MONOCYTE [1]: 0.67%
NEUTROPHIL [1]: 7%
NUCLEATED RED BLOOD CELLS [1]: 0 /100WBC
PLATELET COUNT [1]: 1016.67 x10E3/uL
ALANINE AMINOTRANSFERASE [1]: 62.17 u/L
ALBUMIN [1]: 3.95 G/DL
ALKALINE PHOSPHATASE [1]: 363.5 u/L
ASPARTATE AMINOTRANSFERASE [1]: 118 u/L
BLOOD UREA NITROGEN [1]: 14.5 mg/dL
CARBON DIOXIDE [1]: 22.83 mmol/L
CHLORIDE [1]: 100.67 MEQ/L
CHOLESTEROL [1]: 66 mg/dL
CREATINE PHOSPHOKINASE [1]: 1308.83 u/L
CREATININE [1]: 0.22 mg/dL
GLUCOSE [1]: 187.5 mg/dL
LACTATE DEHYDROGENASE [1]: 380.17 u/L
LIPASE [1]: 16.17 u/L
PHOSPHORUS [1]: 14.27 mg/dL
POTASSIUM [1]: 6.8 MEQ/L
SODIUM [1]: 142.53 MEQ/L
TOTAL BILIRUBIN [1]: 0.2 mg/dL
TOTAL PROTEIN [1]: 5.68 G/DL
URIC ACID [1]: 2.87 mg/dL
ABSOLUTE BASOPHIL [2]: 0 CELLS/uL
ABSOLUTE EOSINOPHIL [2]: 80 CELLS/uL
ABSOLUTE LYMPHOCYTE [2]: 13301.33 CELLS/uL
ABSOLUTE MONOCYTE [2]: 180.83 CELLS/uL
ABSOLUTE SEGMENTED NEUTROPHIL [2]: 1187.83 CELLS/uL
BASOPHIL [2]: 0%
EOSINOPHIL [2]: 0.5%
ERYTHROCYTE COUNT [2]: 5.54 x10E6/uL
HEMATOCRIT [2]: 35.65%
HEMOGLOBIN [2]: 14.22 G/DL
LEUKOCYTE COUNT [2]: 14.75 x10E3/uL
LYMPHOCYTE [2]: 90.67%
MEAN CORPUSCULAR HEMOGLOBIN [2]: 25.65 pg
MEAN CORPUSCULAR HEMOGLOBIN CONCENTRATION [2]: 39.88 G/DL
MEAN CORPUSCULAR VOLUME [2]: 64.35 fL
MONOCYTE [2]: 1%
NEUTROPHIL [2]: 7.83%
NUCLEATED RED BLOOD CELLS [2]: 0.17 /100WBC
PLATELET COUNT [2]: 1285.33 x10E3/uL
ALANINE AMINOTRANSFERASE [2]: 51.67 u/L
ALBUMIN [2]: 4.08 G/DL
ALKALINE PHOSPHATASE [2]: 391.5 u/L
ASPARTATE AMINOTRANSFERASE [2]: 99.5 u/L
BLOOD UREA NITROGEN [2]: 15.5 mg/dL
CARBON DIOXIDE [2]: 28.33 mmol/L
CHLORIDE [2]: 101.83 MEQ/L
CHOLESTEROL [2]: 67.83 mg/dL
CREATINE PHOSPHOKINASE [2]: 771.33 u/L
CREATININE [2]: 0.23 mg/dL
GLUCOSE [2]: 156.5 mg/dL
LACTATE DEHYDROGENASE [2]: 544.33 u/L
LIPASE [2]: 10.17 u/L
PHOSPHORUS [2]: 12.03 mg/dL
POTASSIUM [2]: 6.81 MEQ/L
SODIUM [2]: 144.13 MEQ/L
TOTAL BILIRUBIN [2]: 0.22 mg/dL
TOTAL PROTEIN [2]: 6 G/DL
URIC ACID [2]: 2.18 mg/dL
ABSOLUTE BASOPHIL [3]: 0 CELLS/uL
ABSOLUTE EOSINOPHIL [3]: 118.67 CELLS/uL
ABSOLUTE LYMPHOCYTE [3]: 13131.33 CELLS/uL
ABSOLUTE MONOCYTE [3]: 410.33 CELLS/uL
ABSOLUTE SEGMENTED NEUTROPHIL [3]: 1606.33 CELLS/uL
BASOPHIL [3]: 0%
EOSINOPHIL [3]: 0.67%
ERYTHROCYTE COUNT [3]: 5.09 x10E6/uL
HEMATOCRIT [3]: 32.87%
HEMOGLOBIN [3]: 13.13 G/DL
LEUKOCYTE COUNT [3]: 15.27 x10E3/uL
LYMPHOCYTE [3]: 86%
MEAN CORPUSCULAR HEMOGLOBIN [3]: 25.8 pg
MEAN CORPUSCULAR HEMOGLOBIN CONCENTRATION [3]: 39.97 G/DL
MEAN CORPUSCULAR VOLUME [3]: 64.6 fL
MONOCYTE [3]: 2.67%
NEUTROPHIL [3]: 10.67%
NUCLEATED RED BLOOD CELLS [3]: 0 /100WBC
PLATELET COUNT [3]: 1167 x10E3/uL
ALANINE AMINOTRANSFERASE [3]: 51 u/L
ALBUMIN [3]: 4 G/DL
ALKALINE PHOSPHATASE [3]: 346.33 u/L
ASPARTATE AMINOTRANSFERASE [3]: 113.33 u/L
BLOOD UREA NITROGEN [3]: 12 mg/dL
CARBON DIOXIDE [3]: 23.33 mmol/L
CHLORIDE [3]: 103.33 MEQ/L
CHOLESTEROL [3]: 74.67 mg/dL
CREATINE PHOSPHOKINASE [3]: 1459.33 u/L
CREATININE [3]: 0.2 mg/dL
GLUCOSE [3]: 170 mg/dL
LACTATE DEHYDROGENASE [3]: 168.33 u/L
LIPASE [3]: 11 u/L
PHOSPHORUS [3]: 12.67 mg/dL
POTASSIUM [3]: 5.75 MEQ/L
SODIUM [3]: 144.4 MEQ/L
TOTAL BILIRUBIN [3]: 0.2 mg/dL
TOTAL PROTEIN [3]: 5.8 G/DL
URIC ACID [3]: 1.1 mg/dL
